Assay results as given in patent US20030134348A1, “Recombinant bioluminescent bacteria Escherichia coli DH5@/pSodaLux (EBHJ1) [KCTC 10098BP] for monitoring oxidative stress” (priority 2001, published 2003).

Assays:
[1] = system: Escherichia coli DH5@/pSodaLux (EBHJ1) [KCTC 10098BP]; assay type: cell-based; details: for bioluminescence in dependence on concentration of the toxic material: sodA promoter::LuxCDABE reporter, 96-well luminometer, 30° C., 0-2048 ppm, FIGS. 3-6
Procedure: The bioluminescent bacteria Escherichia coli DH5@/pSodaLux (EBHJ1) were cultured in a shaking incubator of 30° C. at 250 rpm, in the LB medium [DIFCO, USA] containing 25 μg/ml of kanamycin [Sigma Co., USA] until the OD reaches 0.8 at 600 nm. Then, 2 ml of the culture was cultured for about 4 hr in 100 ml of LB medium. […] The bioluminescence was measured at 30° C. with a 96-well luminometer [DYNEX Technologies, USA].
The bioluminescence is measured in BL (bioluminescence intensity). Increase in bioluminescence can be determined by comparing the bioluminescence when toxic material was injected (sample bioluminescence) and that when no toxic material was injected (control bioluminescence). The RBL (relative bioluminescence) is calculated by the following Equation 1. [formula]

[2] = system: Escherichia coli DH5@/pSodaLux (EBHJ1) [KCTC 10098BP]; experiment: Growth inhibition of the recombinant bioluminescent bacteria; assay type: cell-based; details: around 50 ppm

Compound | bioluminescence in dependence on concentration of the toxic material [1] | bioluminescence ([1]; around 50 ppm) | growth inhibition [2]
[Cl][Cd][Cl] [cadmium chloride] | the bioluminescence increased with the concentration |  | 
OO [hydrogen peroxide] | proportionally increasing bioluminescence |  | 
C[n+]1ccc(-c2cc[n+](C)cc2)cc1 [paraquat dichloride] | proportionally increasing bioluminescence | substantial bioluminescence | little growth inhibition
